From paper PMC6917776, “Discovery of a chemical probe for PRDM9” (Nature Communications, 2019)
Several values for one entry are separate records, joined by “and”; a condition that tells them apart may be missing. Identical values can stand only once.

What was measured:
[1] = target: T1, Biotinylated PRDM9 (amino acids 195–415) (Homo sapiens, UniProt Q9NQV7); assay: Surface plasmon resonance (SPR) binding; set-up: key to SPR steady state response, raw data (Y): response units (RU); details: for SPR steady state response, raw data (Y): 350 µM SAM, Exp1–4
T1 construct: Biotinylated PRDM9 (amino acids 195–415)
T1 sequence (Q9NQV7 195-415): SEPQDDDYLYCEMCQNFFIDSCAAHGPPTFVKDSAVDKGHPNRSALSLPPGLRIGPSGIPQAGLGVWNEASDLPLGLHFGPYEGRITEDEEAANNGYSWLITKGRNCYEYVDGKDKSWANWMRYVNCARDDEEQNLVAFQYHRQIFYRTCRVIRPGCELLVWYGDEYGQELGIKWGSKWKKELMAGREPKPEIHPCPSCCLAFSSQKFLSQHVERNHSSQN
Protocol: Biotinylated PRDM9 (amino acids 195–415) was immobilized on the flow cell of a SA sensor chip in 1x HBS-EP buffer, yielding 5700 RU. Using the buffer with 0.5% DMSO, 350 µM SAM and single cycle kinetic with 60 s contact time and a dissociation time of 120 s at a flow rate of 75 µL/min. […] Only binding to PRDM9 and PRDM7 with ∆Tm of higher than 2 °C was observed. […] All (c–e) experiments were performed in triplicate (n = 3) and data points are presented as average ± standard deviation. Source data are provided as a Source Data file.
Binding studies by SPR were performed using a Biacore T200 (GE Health Sciences Inc.) at 20 °C. Biotinylated PRDM9 was captured onto a flow cell of a streptavidin-conjugated SA chip at approximately 5000 response units (RU) according to manufacturer’s protocol while another flow cell was left empty for reference subtraction. […]
in the presence of SAM are the same as presented in figure 2 (a and b) within the main text. The experiments were performed in quadruplicate in the presence of 350 µM SAM (5x Km) or 750 µM SAH (5x IC50). Biotinylated PRDM9 (195-415aa) was immobilized on the flow cell of an SA sensor chip in 1x HBS-EP buffer, yielding 5700 RU. Using the buffer with 0.5% DMSO, 350 µM SAM or 750 µM SAH and single cycle kinetics with 60 s contact time and a dissociation time of 120 s at a flow rate of 75 µL/min. […]
and at 20 µM in the presence of SAH as the highest concentration. Dilution factor of 0.33 was used to yield 5 concentrations.

PRDM9 = PRDM9 (Homo sapiens, UniProt Q9NQV7); assay: DSF thermal stabilisation, PRDM selectivity and titration; type: binding
Protocol: DSF measurements were performed as previously described[21] using a Light Cycler 480 II instrument from Roche Applied Science. […] Sypro Orange was purchased from Invitrogen as a 5000 × stock solution (concentration not specified by vendor) and was diluted 1:1000 to yield a 5 × working concentration. The temperature scan curves were fitted to a Boltzmann sigmoid function, and the Tm values were obtained from the midpoint of the transition.

[2] = MRK-740 0.244141 uM, in the absence of SAM
[3] = MRK-740 0.244141 uM, in the presence of 2 mM of SAM
[4] = MRK-740 0.488281 uM, in the absence of SAM
[5] = MRK-740 0.488281 uM, in the presence of 2 mM of SAM
[6] = MRK-740 0.976563 uM, in the absence of SAM
[7] = MRK-740 0.976563 uM, in the presence of 2 mM of SAM
[8] = MRK-740 1.95312 uM, in the absence of SAM
[9] = MRK-740 1.95312 uM, in the presence of 2 mM of SAM
[10] = MRK-740 3.90625 uM, in the absence of SAM
[11] = MRK-740 3.90625 uM, in the presence of 2 mM of SAM
[12] = MRK-740 7.8125 uM, in the absence of SAM
[13] = MRK-740 7.8125 uM, in the presence of 2 mM of SAM
[14] = MRK-740 15.625 uM, in the absence of SAM
[15] = MRK-740 15.625 uM, in the presence of 2 mM of SAM
[16] = MRK-740 31.25 uM, in the absence of SAM
[17] = MRK-740 31.25 uM, in the presence of 2 mM of SAM
[18] = MRK-740 62.5 uM, in the absence of SAM
[19] = MRK-740 62.5 uM, in the presence of 2 mM of SAM
[20] = MRK-740 125 uM, in the absence of SAM

PRDM9, sequence (Q9NQV7 whole entry): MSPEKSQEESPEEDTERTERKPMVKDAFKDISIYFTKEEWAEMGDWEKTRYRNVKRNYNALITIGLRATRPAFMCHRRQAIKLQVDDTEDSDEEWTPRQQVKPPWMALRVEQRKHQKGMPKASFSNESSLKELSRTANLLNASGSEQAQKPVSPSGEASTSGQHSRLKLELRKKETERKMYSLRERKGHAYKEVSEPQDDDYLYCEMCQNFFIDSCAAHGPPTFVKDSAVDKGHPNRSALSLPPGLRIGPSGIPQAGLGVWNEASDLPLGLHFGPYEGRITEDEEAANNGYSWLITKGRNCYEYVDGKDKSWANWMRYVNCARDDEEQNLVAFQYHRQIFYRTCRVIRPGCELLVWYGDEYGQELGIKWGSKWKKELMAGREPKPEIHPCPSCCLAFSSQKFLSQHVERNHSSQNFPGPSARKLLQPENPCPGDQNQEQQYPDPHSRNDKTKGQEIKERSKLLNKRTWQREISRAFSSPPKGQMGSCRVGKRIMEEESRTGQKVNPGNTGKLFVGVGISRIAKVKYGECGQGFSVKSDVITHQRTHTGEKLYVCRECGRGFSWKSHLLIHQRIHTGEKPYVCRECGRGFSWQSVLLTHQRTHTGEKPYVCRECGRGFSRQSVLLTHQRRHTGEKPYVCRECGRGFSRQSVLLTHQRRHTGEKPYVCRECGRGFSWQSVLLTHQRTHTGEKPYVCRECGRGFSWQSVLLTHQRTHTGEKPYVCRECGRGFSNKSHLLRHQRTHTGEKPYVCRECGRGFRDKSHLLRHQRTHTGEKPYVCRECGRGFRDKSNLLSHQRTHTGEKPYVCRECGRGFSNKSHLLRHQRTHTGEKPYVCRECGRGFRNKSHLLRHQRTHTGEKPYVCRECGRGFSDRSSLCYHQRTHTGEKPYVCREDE

COc1cc(OC)cc(-c2noc(N3CCN(C)C4(CCN(c5ccnc(C)c5)CC4)C3)n2)c1 [MRK-740]
Binding to PRDM9 in the presence of SAH, compared with SAM (in words) ([1]; 750 µM SAH versus 350 µM SAM): dramatically weaker
SPR steady state response, raw data (Y) ([1]; X = 1.11E-07 (concentration, unit not given)): 22.0666 and 21.2987 and 20.382 and 19.6958
SPR steady state response, raw data (Y) ([1]; X = 1.23E-08 (concentration, unit not given)): 5.847 and 5.521 and 5.156 and 5.206
SPR steady state response, raw data (Y) ([1]; X = 3.70E-08 (concentration, unit not given)): 12.6421 and 12.2536 and 11.7778 and 11.3155
kon ([1]; in the presence of 350 µM SAM): 1.2e+06 ± 1e+11 M⁻¹ s⁻¹
Kd ([1]; in the presence of 350 µM SAM, n = 4, read-out: Kd, SPR kinetic fit): 87 ± 5 nM
∆Tm, Average (n=3) (PRDM9; [2]): -0.02041 ⁰C
∆Tm, replicates (PRDM9; [2]): 0.1071 ⁰C and -0.1796 ⁰C and 0.01126 ⁰C
∆Tm, Average (n=3) (PRDM9; [3]): 0.008307 ⁰C
∆Tm, replicates (PRDM9; [3]): 0.03434 ⁰C and -0.02437 ⁰C and 0.01495 ⁰C
∆Tm, Average (n=3) (PRDM9; [4]): 0.01061 ⁰C
∆Tm, replicates (PRDM9; [4]): 0.0928 ⁰C and -0.07107 ⁰C and 0.01011 ⁰C
∆Tm, Average (n=3) (PRDM9; [5]): 0.1496 ⁰C
∆Tm, replicates (PRDM9; [5]): 0.1732 ⁰C and 0.04052 ⁰C and 0.2352 ⁰C
∆Tm, Average (n=3) (PRDM9; [6]): 0.04508 ⁰C
∆Tm, replicates (PRDM9; [6]): 0.1528 ⁰C and -0.2157 ⁰C and 0.1982 ⁰C
∆Tm, Average (n=3) (PRDM9; [7]): 0.2255 ⁰C
∆Tm, replicates (PRDM9; [7]): 0.2233 ⁰C and 0.03455 ⁰C and 0.4187 ⁰C
∆Tm, Average (n=3) (PRDM9; [8]): -0.08242 ⁰C
∆Tm, replicates (PRDM9; [8]): -0.00371 ⁰C and -0.4167 ⁰C and 0.1731 ⁰C
∆Tm, Average (n=3) (PRDM9; [9]): 0.4191 ⁰C
∆Tm, replicates (PRDM9; [9]): 0.4623 ⁰C and 0.3242 ⁰C and 0.4707 ⁰C
∆Tm, Average (n=3) (PRDM9; [10]): -0.01426 ⁰C
∆Tm, replicates (PRDM9; [10]): 0.02232 ⁰C and -0.1544 ⁰C and 0.08926 ⁰C
∆Tm, Average (n=3) (PRDM9; [11]): 0.7764 ⁰C
∆Tm, replicates (PRDM9; [11]): 0.7056 ⁰C and 0.7972 ⁰C and 0.8264 ⁰C
∆Tm, Average (n=3) (PRDM9; [12]): 0.1037 ⁰C
∆Tm, replicates (PRDM9; [12]): 0.226 ⁰C and -0.09012 ⁰C and 0.1752 ⁰C
∆Tm, Average (n=3) (PRDM9; [13]): 1.337 ⁰C
∆Tm, replicates (PRDM9; [13]): 1.344 ⁰C and 1.221 ⁰C and 1.444 ⁰C
∆Tm, Average (n=3) (PRDM9; [14]): -0.1063 ⁰C
∆Tm, replicates (PRDM9; [14]): -0.01797 ⁰C and -0.3914 ⁰C and 0.09041 ⁰C
∆Tm, Average (n=3) (PRDM9; [15]): 1.956 ⁰C
∆Tm, replicates (PRDM9; [15]): 2.017 ⁰C and 1.819 ⁰C and 2.032 ⁰C
∆Tm, Average (n=3) (PRDM9; [16]): 0.1387 ⁰C
∆Tm, replicates (PRDM9; [16]): 0.3126 ⁰C and 0.00612 ⁰C and 0.09739 ⁰C
∆Tm, Average (n=3) (PRDM9; [17]): 2.652 ⁰C
∆Tm, replicates (PRDM9; [17]): 2.731 ⁰C and 2.527 ⁰C and 2.698 ⁰C
∆Tm, Average (n=3) (PRDM9; [18]): 0.1127 ⁰C
∆Tm, replicates (PRDM9; [18]): 0.2122 ⁰C and -0.02556 ⁰C and 0.1514 ⁰C
∆Tm, Average (n=3) (PRDM9; [19]): 3.593 ⁰C
∆Tm, replicates (PRDM9; [19]): 3.459 ⁰C and 3.608 ⁰C and 3.713 ⁰C
∆Tm, Average (n=3) (PRDM9; [20]): 0.3345 ⁰C
∆Tm, replicates (PRDM9; [20]): 0.254 ⁰C and 0.2924 ⁰C and 0.4572 ⁰C
